Experiments:
ECHCG [1] = assay: Herbicidal pre-emergence action (Table A2); format: in vivo, Echinochloa crus-galli; settings: visual grading after ca. 3 weeks
Text: (§1) Seeds of mono- and dicotyledonous weed plants were sown in plastic pots (double sowings with one species of mono- and one species of dicotyledonous weed plants per pot), in sandy loam, and covered with soil.

LOLRI = assay: Herbicidal pre-emergence action (Table A3); format: in vivo, Lolium rigidum; settings: visual grading after ca. 3 weeks
Text: as §1

SETVI [2] = assay: Herbicidal pre-emergence action (Table A5); format: in vivo, Setaria viridis; settings: visual grading after ca. 3 weeks
Text: as §1

STEME = assay: Herbicidal pre-emergence action (Table A6); format: in vivo, Stellaria media; settings: visual grading after ca. 3 weeks
Text: as §1

POAAN [3] = assay: Herbicidal pre-emergence action (Table A7); format: in vivo, Poa annua; settings: visual grading after ca. 3 weeks
Text: as §1

POAAN [4] = assay: Herbicidal post-emergence action (Table B7); format: in vivo, Poa annua; settings: application rate 1280 g/ha
Experimental: (§2) Seeds of mono- and dicotyledonous weed plants were placed in plastic pots in sandy loam soil (doubly sown with in each case one species of mono- or dicotyledonous weed plants per pot), covered with soil and cultivated in a greenhouse under controlled growth conditions. 2 to 3 weeks after sowing, the test plants were treated at the one-leaf stage. […] After the test plants had been kept in the greenhouse under optimum growth conditions for about 3 weeks, the activity of the preparations was rated visually in comparison to untreated controls. For example, 100% activity = the plants have died, 0% activity = like control plants.

VERPE = assay: Herbicidal post-emergence action (Table B10); format: in vivo, Veronica persica
Experimental: as §2

DIGSA = assay: Herbicidal pre-emergence action (Table A12); format: in vivo, Digitaria sanguinalis; settings: visual grading after ca. 3 weeks
Text: as §1

ECHCG [5] = assay: Herbicidal pre-emergence action, section C (Table C6); format: in vivo, Echinochloa crus-galli; settings: application rate 320 g/ha; visual grading after ca. 3 weeks
VIOTR = assay: Herbicidal pre-emergence action, section C (Table C12); format: in vivo, Viola tricolor; settings: application rate 320 g/ha; visual grading after ca. 3 weeks
MATIN = assay: Herbicidal pre-emergence action (Table A4); format: in vivo, Matricaria inodora; settings: application rate 320 g/ha; visual grading after ca. 3 weeks
Text: as §1

ALOMY = assay: Herbicidal pre-emergence action (Table A9); format: in vivo, Alopecurus myosuroides; settings: application rate 1280 g/ha; visual grading after ca. 3 weeks
Text: as §1

ECHCG [6] = assay: Herbicidal post-emergence action (Table B3); format: in vivo, Echinochloa crus-galli; settings: application rate 1280 g/ha; rated visually after about 3 weeks
Experimental: as §2

SETVI [7] = assay: Herbicidal post-emergence action (Table B8); format: in vivo, Setaria viridis; settings: application rate 1280 g/ha
Experimental: as §2

KCHSC = assay: Herbicidal pre-emergence action (Table A10); format: in vivo, Kochia scoparia; settings: application rate 1280 g/ha; visual grading after ca. 3 weeks
Text: as §1

## O=C1N(Cc2cccs2)CCCC12CCCN(Cc1ccccc1Cl)C2=O (stereo not drawn) [I-062]
ECHCG [1]; application rate 1280 g/ha
  pre-emergence activity against ECHCG: 100%
LOLRI; application rate 320 g/ha
  pre-emergence activity against LOLRI: 100%
SETVI [2]; application rate 320 g/ha
  pre-emergence activity against SETVI: 100%
STEME; application rate 320 g/ha
  pre-emergence activity against STEME: 90%
POAAN [3]; application rate 320 g/ha
  pre-emergence activity against POAAN: 100%
POAAN [4]
  post-emergence activity against POAAN: 90%
VERPE; application rate 1280 g/ha
  post-emergence activity against VERPE: 90%

## CC(c1ccccc1F)N1CCCC2(CCCN(C(C)c3ccccc3F)C2=O)C1=O (stereo not drawn) [I-115]
SETVI [2]; application rate 1280 g/ha
  pre-emergence activity against SETVI: 100%
STEME; application rate 1280 g/ha
  pre-emergence activity against STEME: 100%
POAAN [3]; application rate 1280 g/ha
  pre-emergence activity against POAAN: 90%
VERPE; application rate 1280 g/ha
  post-emergence activity against VERPE: 90%

## O=C1N(Cc2ccccc2C(F)(F)F)CCCC12CCCN(Cc1ccccc1C(F)(F)F)C2=O (racemic) [I-091]
ECHCG [1]; application rate 1280 g/ha
  pre-emergence activity against ECHCG: 100%
POAAN [3]; application rate 1280 g/ha
  pre-emergence activity against POAAN: 100%
DIGSA; application rate 1280 g/ha
  pre-emergence activity against DIGSA: 100%
VERPE; application rate 320 g/ha
  post-emergence activity against VERPE: 90%

## O=C1N(Cc2cc(F)c(F)cc2F)CCCC12CCCN(Cc1cc(F)c(F)cc1F)C2=O (single isomer, unassigned; (-)) [I-214, (-)-2,8-bis(2,4,5-trifluorophenylmethyl)-2,8-diazaspiro[5.5]undecane-1,7-dione]
ECHCG [5]
  pre-emergence activity against ECHCG: 100%
VIOTR
  pre-emergence activity against VIOTR: 80%

## O=C1N(Cc2ccccc2F)CCCC12CCCN(Cc1ccccc1Cl)C2=O (racemic) [I-036]
ECHCG [1]; application rate 320 g/ha
  pre-emergence activity against ECHCG: 100%
LOLRI; application rate 320 g/ha
  pre-emergence activity against LOLRI: 100%
MATIN
  pre-emergence activity against MATIN: 90%
SETVI [2]; application rate 320 g/ha
  pre-emergence activity against SETVI: 100%
POAAN [3]; application rate 320 g/ha
  pre-emergence activity against POAAN: 90%
ALOMY
  pre-emergence activity against ALOMY: 90%
ECHCG [6]
  post-emergence activity against ECHCG: 90%
POAAN [4]
  post-emergence activity against POAAN: 90%
SETVI [7]
  post-emergence activity against SETVI: 90%

## Cc1ccccc1CN1CCCC2(CCCN(Cc3ccccc3)C2=O)C1=O (racemic) [I-092]
ECHCG [1]; application rate 320 g/ha
  pre-emergence activity against ECHCG: 100%
LOLRI; application rate 1280 g/ha
  pre-emergence activity against LOLRI: 100%
SETVI [2]; application rate 320 g/ha
  pre-emergence activity against SETVI: 90%
POAAN [4]
  post-emergence activity against POAAN: 90%
VERPE; application rate 320 g/ha
  post-emergence activity against VERPE: 90%

## O=C1N(Cc2ccccc2F)CCC12CCCN(Cc1cccc(F)c1F)C2=O (racemic) [I-085]
ECHCG [1]; application rate 1280 g/ha
  pre-emergence activity against ECHCG: 100%
LOLRI; application rate 320 g/ha
  pre-emergence activity against LOLRI: 100%
MATIN
  pre-emergence activity against MATIN: 90%
SETVI [2]; application rate 1280 g/ha
  pre-emergence activity against SETVI: 100%
STEME; application rate 320 g/ha
  pre-emergence activity against STEME: 90%
POAAN [3]; application rate 320 g/ha
  pre-emergence activity against POAAN: 100%
ALOMY
  pre-emergence activity against ALOMY: 90%
KCHSC
  pre-emergence activity against KCHSC: 90%
DIGSA; application rate 320 g/ha
  pre-emergence activity against DIGSA: 90%
POAAN [4]
  post-emergence activity against POAAN: 90%
SETVI [7]
  post-emergence activity against SETVI: 90%

Source: patent EP4273147A1, “SUBSTITUTED SPIROLACTAMS, SALTS THEREOF AND THEIR USE AS HERBICIDALLY ACTIVE SUBSTANCES” (Bayer Aktiengesellschaft, priority 2022, dated 2023)
